By Cmax is commonly meant the peak of the concentration-time curve. A word on the Tmax: it is the time at which the peak concentration occurs. Usually AUC(0-t) stands for exposure summed from dosing to a finite time, without extrapolation to infinity. A low value points to low exposure. What is called half-life is how long it takes for the measured level to halve. The low end stands for fast loss, the high end for slow loss.

Structures are written as SMILES. Like-named read-outs stand apart in the source and are kept apart here.

The nature of data set [1]: Pharmacokinetics of psilocin and 4-HIAA in plasma of healthy volunteers after a single oral dose of 25 mg psilocybin (LC-MS/MS). It is filed as in vivo, human. As to conditions: for Cmax / Tmax / AUC(0-t) / half-life: human; for Cmax / Tmax: po, 25 mg; for AUCLAST relative to AUCLAST of psilocin: 0-420 min. As to the method:
To examine the application of the developed method, psilocin and 4-HIAA concentrations were quantified in plasma samples of three healthy volunteers receiving a single oral dose of 25 mg psilocybin. This is a moderate to high dose currently used in clinical phase 2-3 studies. The study was approved by the Ethical Committee of Northwestern and Central Switzerland (EKNZ, BASEC ID: 2019-00223), registered at ClinicalTrials.gov (ID: NCT03912974), and conducted in accordance with the Declaration of Helsinki and International Conference on Harmonization Guidelines in Good Clinical Practice. All volunteers provided written informed consent prior to study participation.
To establish concentration time profiles, blood samples were collected in lithium heparin coated tubes at the following time points: 2 hours before and 0, 15, 30, 45, 60, 90, 120, 150, 180, 240, 300, 360, and 420 minutes after treatment. Blood samples were centrifuged for 10 minutes at 3000 rpm to obtain plasma, which was transferred into cryotubes. All samples were stored −80° C. until analysis.
Study, calibration, and QC samples were processed as described before. In addition, the total amount of glucuronide conjugated psilocin and 4-HIAA was determined similar to the protocol of Kamata et al. (2006). In brief, 5 μl of Escherichia coli deglucuronidase (3000 units/ml in water) was mixed with 50 μl plasma sample. An aliquot of 100 μl acetic acid buffer (0.1 M) was added to the mixture. The samples were incubated for 3 hours at 37° C. in a thermomixer (Eppendorf, Hamburg, Germany). Enzymatic reaction was terminated, and samples extracted by the addition of 150 μl methanol. The samples were vortex mixed and centrifuged as outlined above.
For each analytical run, a calibration line was analysed at the beginning and at the end of the measurements. In between, the study samples of the three volunteers were measured as well as triplicates of LLOQ, QCLOW, QCMID, and QCHIGH samples. Samples with a concentration below the LLOQ were marked as blq (below limit of quantification) and samples with concentrations above the ULOQ were diluted with blank plasma into the calibration range.
The concentration-time profile was plotted and the maximal plasma concentration (Cmax) and time to reach it (Tmax) were obtained graphically from the plots. Pharmacokinetic parameters were calculated using non-compartmental methods in Phoenix WinNonlin 8.3 (Certara, N.J., USA). The area under the plasma concentration time profile was calculated by using the linear trapezoidal rule from 0-420 min (AUCLAST). The elimination half-life (t1/2) was calculated by the equation
where the elimination rate constant (λ) was the slope of log(C(t)) versus t determined in the terminal elimination phase.

Data set [2] in a line: Stability of psilocin and 4-HIAA in plasma under different storage conditions. The settings on record: human plasma, frozen at −20° C., thawed at room temperature. It counts as physicochemical. How it is done: The stability of psilocin and 4-HIAA in plasma were investigated under different storage conditions. Seven replicates of LLOQ, QCLOW, QCMID, and QCHIGH samples were stored for 8 hours at room temperature (bench-top stability) and for 1 month at −20° C. (one-month stability). Moreover, the stability was assessed after three consecutive freeze and thaw cycles (freeze/thaw stability), thereby freezing the QC samples at −20° C. for at least 24 hours and thawing them afterwards at room temperature. The concentration of those stability test samples was calculated based on a freshly prepared calibration line. Samples were designated to be stable if the accuracy was between 85-115% (LLOQ: 80-120%) and the precision ≤15% (LLOQ: ≤20%).

For data set [3] the following is noted: cited from earlier work.
[4] abbreviates: plasma, average of three healthy volunteers, oral 25 mg psilocybin, read-out: maximal plasma level (Cmax).
The mark [5] stands for this setting: plasma, plasma, three healthy volunteers, oral dose of 25 mg psilocybin, read-out: Cmax ± SD.
Where [6] appears, read: plasma, three healthy volunteers, oral dose of 25 mg psilocybin.
Setting [7] is: area under the plasma concentration time curve until 7 h post treatment, oral 25 mg psilocybin.
[8] abbreviates: after oral administration of psilocybin.

Take `OCCc1c[nH]c2cccc(O)c12` [4-HTP, 4-hydroxytryptophol]: the “plasma concentration (not detectable at limit of detection)” value in data set [1] (plasma of volunteers who received 25 mg psilocybin) is under 2.5 ng/mL.
For the compound `CN(C)CCc1c[nH]c2cccc(O)c12` [psilocin], the highest concentration (Cmax) in data set [1] (setting [4]) worked out at 19.2 ng/mL. The maximum concentration (Cmax) in data set [1] (setting [5]) worked out at 19.2 ± 4 ng/mL. In data set [1] (setting [6]), the Tmax was 2 to 2.33 h, the half-life amounted to 2.12 h and the “Tmax ± SD” value was 2.33 ± 0.767 h. This compound showed an AUC(0-t) in data set [1] (setting [7]) of 61.2 ng·h/mL. In data set [1] (samples reanalysed after deglucuronidation with Escherichia coli glucuronidase), the “glucuronide conjugation in plasma” value is on record as “underwent extensive 0-glucuronidation”. The “accuracy of QC samples after three freeze and thaw cycles” value in data set [2] was 105-108%. In data set [3] (setting [8]), the elimination half-life is 2 to 3 h, the “peak concentrations in plasma” value was 10 to 40 ng/mL and the “time to peak plasma concentration” value is 1.5 to 2 h. The “fraction excreted from body as psilocin-O-glucuronide” value in data set [3] (in vivo) is reported as 80%.
Consider `O=C(O)Cc1c[nH]c2cccc(O)c12` [4-HIAA, 4-hydroxyindole-3-acetic acid], for which the peak concentration (Cmax) in data set [1] (setting [4]) is 137 ng/mL. In data set [1] (setting [5]), the Cmax is 137 ± 22 ng/mL. In addition, in data set [1] (setting [6]), the time of peak concentration (Tmax) was in the range of 2 to 2.33 h, the half-life is 2.32 h and the “Tmax ± SD” value stood at 2 ± 1 h. Also, the AUC(0-t) in data set [1] (setting [7]) was 372 ng·h/mL. Also, in data set [1] (oral 25 mg psilocybin), the “AUCLAST relative to AUCLAST of psilocin” value is given as “about 5 fold”. For the same compound, the “accuracy of QC samples after three freeze and thaw cycles” value in data set [2] is 100-109%.
In the case of `CN(C)CCc1c[nH]c2cccc(O[C@@H]3O[C@H](C(=O)O)[C@@H](O)[C@H](O)[C@H]3O)c12` [psilocin-glucuronide, psilocin-O-glucuronide], the AUClast in data set [1] (setting [7]) is 20631 ng·min/mL. The “maximal plasma level (Cmax)” value in data set [1] (average of three healthy volunteers, oral 25 mg psilocybin) amounted to 78.3 ng/mL. Moreover, the “AUCLAST relative to AUCLAST of psilocin” value in data set [1] (oral 25 mg psilocybin) is 5-6 fold. For the same compound, in data set [1] (setting [6]), the “Tmax ± SD” value is on record as “roughly 220 min” and the t1/2 is 3.58 ± 1.2 h. Further, in data set [1] (plasma, three healthy volunteers, oral dose of 25 mg psilocybin, listed as Psilocin-glucuronide), the “Tmax ± SD” value turned out to be 3.67 ± 1.53 h.

The record behind these values is patent publication US20220082578A1, “METHOD OF Q[…]'S MAIN METABOLITES, PSILOCIN AND 4-HYDROXYINDOLE-3-ACETIC ACID, IN HUMAN PLASMA” (Universitätsspital Basel, priority 2020, published 2022).
